Source: article PMC9822021, “Biological Activity of Amidino-Substituted Imidazo [4,5-b]pyridines” (Molecules, 2022)
Like-named read-outs stand apart in the source and are kept apart here.

How the values were obtained:
[1] = test system: S. aureus ATCC 29213; assay: Antibacterial activity in vitro, broth microdilution; type: cell-based; details: Staphylococcus aureus, ATCC29213; broth microdilution (CLSI), 16–24 h at 37 °C
Protocol: (§1) Synthesized compounds were prepared as 10 mM DMSO solutions and tested in a final concentration range of 100–0.2 µM [34].
(§2) Broth microdilution testing was performed according to CLSI (Clinical Laboratory Standards Institute) guidelines. MIC (minimal inhibitory concentration) values were defined as the last tested concentration of the compound at which there was no visible growth of bacteria. Inoculums for each microorganism were prepared using the direct colony suspension method, where broth solutions that achieved turbidity equivalent to 0.5 McFarland standard were additionally diluted 100× with Ca-adjusted MH media (Becton Dickinson).

[2] = test system: S. Pneumoniae ATCC 49619; assay: as above; type: cell-based; details: Streptococcus pneumoniae, ATCC49619; broth microdilution (CLSI), 16–24 h at 37 °C
Protocol: as §1, §2

[3] = test system: E. coli ATCC 25922; assay: as above; type: cell-based; details: Escherichia coli, ATCC25922; broth microdilution (CLSI), 16–24 h at 37 °C
Protocol: as §1, §2

[4] = in vitro
[5] = test system: E. coli Efflux Del; assay: microbe, parasite or virus in culture; type: cell-based; details: Escherichia coli, read-out: MIC E. coli Efflux Del
Protocol: as §1, §2

[6] = test system: PC3 prostate carcinoma cells; assay: In vitro antiproliferative activity, MTT assay; type: cell-based; details: Homo sapiens, 72 h
Excerpt: (§3) Human cancer cell lines used in this manuscript, namely Capan-1, HCT-116, NCI-H460, LN-229, HL-60, K-562, Z-138, SW620, PC3 and HeLa, were acquired from the American Type Culture Collection (ATCC, Manassas, VA, USA), while the DND-41 cell line was purchased from the Deutsche Sammlung von Mikroorganismen und Zellkulturen (DSMZ Leibniz-Institut, Germany). Culture media were purchased from Gibco Life Technologies, USA, and supplemented with 10% fetal bovine serum (HyClone, GE Healthcare Life Sciences, Chicago, IL, USA), except for the media for SW620, PC3 and HeLa cells, which were purchased from Sigma.
(§4) Adherent cell lines LN-229, HCT-116, NCI-H460 and Capan-1 cells were seeded at a density between 500 and 1500 cells per well in 384-well tissue culture plates (Greiner). […]. Cells were incubated for 72 h with compounds and were then analyzed using the CellTiter 96® AQueous One Solution Cell Proliferation Assay (MTS) reagent (Promega) according to the manufacturer’s instructions. Absorbance of the samples was measured at 490 nm using a SpectraMax Plus 384 (Molecular Devices), and OD values were used to calculate the 50% inhibitory concentration (IC50). Compounds were tested in two independent experiments. SW620, PC3 and HeLa cells were seeded in 96-well microtiter plates at 1 × 10^4 to 3 × 10^4 cells/mL, depending on the doubling times of the specific cell line. Test agents were then added in five 10-fold dilutions (10^−8 to 10^−4 M). Working dilutions were freshly prepared on the day of testing. After 72 h of incubation, the cell growth rate was evaluated using the MTT assay as described previously. Absorbance of the samples was measured at 570 nm, and OD values were used to calculate the 50% inhibitory concentration (IC50). Each test was performed in quadruplicate in at least two individual experiments.

[7] = test system: HeLa cervical carcinoma cells; assay: In vitro antiproliferative activity, MTT assay; type: cell-based; details: Homo sapiens, 72 h
Excerpt: as §3, §4

[8] = test system: SW620 colon carcinoma cells; assay: In vitro antiproliferative activity, MTT assay; type: cell-based; details: Homo sapiens, SW-620, 72 h
Excerpt: as §3, §4

[9] = test system: Z-138 non-Hodgkin lymphoma cells; assay: In vitro antiproliferative activity, MTS proliferation assay; type: cell-based, human; details: Homo sapiens, Z-138, 72 h
Excerpt: as §3, §4

[10] = test system: Capan-1 pancreatic adenocarcinoma cells; assay: as above; type: cell-based; details: Homo sapiens, 72 h
Protocol: (§5) Culture media were purchased from Gibco Life Technologies, USA, and supplemented with 10% fetal bovine serum (HyClone, GE Healthcare Life Sciences, Chicago, IL, USA), except for the media for SW620, PC3 and HeLa cells, which were purchased from Sigma.
(§6) Cells were incubated for 72 h with compounds and were then analyzed using the CellTiter 96® AQueous One Solution Cell Proliferation Assay (MTS) reagent (Promega) according to the manufacturer’s instructions. […] Compounds were tested in two independent experiments. SW620, PC3 and HeLa cells were seeded in 96-well microtiter plates at 1 × 10^4 to 3 × 10^4 cells/mL, depending on the doubling times of the specific cell line. Test agents were then added in five 10-fold dilutions (10^−8 to 10^−4 M). Working dilutions were freshly prepared on the day of testing. After 72 h of incubation, the cell growth rate was evaluated using the MTT assay as described previously. […] Each test was performed in quadruplicate in at least two individual experiments.

[11] = test system: DND-41 acute lymphoblastic leukemia cells; assay: as above; type: cell-based; details: Homo sapiens, DND41, 72 h
Protocol: as §5, §6

[12] = test system: HL-60 acute myeloid leukemia cells; assay: as above; type: cell-based; details: Homo sapiens, 72 h
Protocol: as §5, §6

[13] = test system: LN-229 glioblastoma cells; assay: as above; type: cell-based; details: Homo sapiens, 72 h
Excerpt: as §3, §4

[14] = test system: NCI-H460 lung carcinoma cells; assay: as above; type: cell-based; details: Homo sapiens, 72 h
Excerpt: as §3, §4

[15] = test system: K-562 chronic myeloid leukemia cells; assay: as above; type: cell-based; details: Homo sapiens, K562, 72 h
Excerpt: as §3, §4

[16] = test system: HCT-116 colorectal carcinoma cells; assay: as above; type: cell-based; details: Homo sapiens, 72 h
Excerpt: as §3, §4

[17] = in vitro; details: dog
[18] = test system: HCoV OC43; assay: Antiviral CPE reduction assay; type: cell-based, human coronavirus OC43; details: Betacoronavirus 1, OC43, HEL 299 cells
[19] = test system: YFV 17D; assay: microbe, parasite or virus in culture; type: cell-based; details: Yellow fever virus, Huh-7, read-out: EC50 YFV 17D Huh7
[20] = test system: Sindbis; assay: Antiviral CPE reduction assay; type: cell-based; details: Sindbis virus, Huh-7, Huh7 cells
[21] = test system: RSV A Long; assay: Antiviral CPE reduction assay; type: cell-based, respiratory syncytial virus A; details: HEL 299 cells
[22] = test system: Influenza H3N2 (A/HK/7/87); assay: Antiviral CPE reduction assay; type: cell-based; details: Influenza A virus, MDCK cells
[23] = in vitro; details: human
[24] = test system: HCoV 229E; assay: Antiviral CPE reduction assay; type: cell-based; details: Human coronavirus 229E, HEL 299 cells
[25] = test system: Zika mr766; assay: Antiviral CPE reduction assay; type: cell-based; details: Zika virus, Huh-7, Huh7 cells
[26] = test system: Influenza H1N1 (A/Ned/378/05); assay: Antiviral CPE reduction assay; type: cell-based; details: Influenza A virus, MDCK cells
[27] = in vitro; details: human; remark: listed apart in the source
[28] = test system: HCoV NL63; assay: Antiviral CPE reduction assay; type: cell-based; details: Human coronavirus NL63, Huh-7, Huh7 cells
[29] = test system: Influenza B (B/Ned/537/05); assay: Antiviral CPE reduction assay; type: cell-based; details: Influenza B virus, MDCK cells
[30] = test system: HSV-1 KOS; assay: Antiviral CPE reduction assay; type: cell-based, herpes simplex virus-1; details: Human alphaherpesvirus 1

Row | Compound | MIC [1] | MIC [2] | MIC [3] | melting point | CC50 [4] | MIC [5] | IC50 [6] | IC50 [7] | IC50 [8] | IC50 [9] | IC50 [10] | IC50 [11] | IC50 [12] | IC50 [13] | IC50 [14] | IC50 [15] | IC50 [16] | CC50 [17] | EC50 [18] | EC50 [19] | further results
1 | c1ccc(-c2nc3ncccc3[nH]2)cc1 [Compound 5, 2-Phenyl-1H-imidazo[4:5-b]pyridine] | > 64 µM | > 64 µM | > 64 µM | 290 to 291 °C | > 30 µM | > 64 µM | > 100 µM | 13.6 ± 3.4 µM | > 100 µM | > 100 µM | 98 ± 2.9 µM | > 100 µM | 81.7 ± 26 µM | > 100 µM | > 100 µM | > 100 µM | > 100 µM | 79.2 ± 29.4 µM | – | – | –
2 | Cn1c(-c2ccc(C#N)cc2)nc2cccnc21 [Compound 17, 4-(3-Methyl-3H-imidazo[4,5-b]pyridin-2-yl)benzonitrile] | > 64 µM | > 64 µM | > 64 µM | 183 to 185 °C | – | > 64 µM | > 100 µM | > 100 µM | > 100 µM | > 100 µM | > 100 µM | > 100 µM | > 100 µM | > 100 µM | > 100 µM | > 100 µM | > 100 µM | > 100 µM | > 100 µM | > 100 µM | EC50 [20]: > 100 µM; EC50 ([21]; CPE reduction): 79 ± 29.7 µM; EC50 ([21]; human respiratory syncytial virus, HEL 299, CPE reduction): 58 µM; EC50 [22]: > 100 µM; CC50 [23]: > 100 µM; EC50 [24]: > 100 µM; EC50 [25]: > 100 µM; EC50 [26]: > 100 µM; CC50 [27]: > 100 µM; EC50 [28]: > 100 µM; EC50 [29]: > 100 µM; EC50 [30]: > 100 µM
3 | Cl.N=C(N)c1ccc(-c2nc3ncc(Br)cc3[nH]2)cc1 [Compound 10, 4-(6-Bromo-1H-imidazo[4,5-b]pyridin-2-yl)benzimidamide Hydrochloride] | > 64 µM | > 64 µM | > 64 µM | > 300 °C | – | > 64 µM | ≥ 100 µM | 1.3 ± 0.26 µM | 0.4 ± 0.1 µM | > 100 µM | > 100 µM | > 100 µM | > 100 µM | > 100 µM | > 100 µM | > 100 µM | > 100 µM | > 100 µM | > 100 µM | > 100 µM | EC50 [20]: > 100 µM; EC50 ([21]; human respiratory syncytial virus, CPE reduction): 86.9 ± 18.6 µM; EC50 [22]: 79.2 ± 14.7 µM; CC50 [23]: > 100 µM; EC50 [24]: > 100 µM; EC50 [25]: > 100 µM; EC50 [26]: 71.4 ± 24.3 µM; CC50 [27]: > 100 µM; EC50 [28]: > 100 µM; EC50 [29]: 94 ± 5.2 µM; EC50 [30]: > 100 µM
4 | Brc1cnc2nc(-c3ccc(C4=NCCCN4)cc3)[nH]c2c1.Cl [Compound 15, 6-Bromo-2-(4-(1,4,5,6-tetrahydropyrimidin-2-yl)phenyl)-1H-imidazo[4,5-b]pyridine Hydrochloride] | > 64 µM | > 64 µM | > 64 µM | > 300 °C | > 30 µM | > 64 µM | 8.6 ± 0.7 µM | 7.3 ± 0.4 µM | 3.5 ± 0.2 µM | 29.1 ± 16.5 µM | > 100 µM | 17 ± 1.3 µM | > 100 µM | 73.5 ± 0.8 µM | > 100 µM | > 100 µM | > 100 µM | > 100 µM | – | – | –
